Measured values from paper PMC11580958 (bioRxiv, 2024).
Residues, ends and D or L forms follow the SMILES beside them. *: point of attachment. Cbz = O=C(OCc1ccccc1)*

Legend:
[1] = test system: BMDCs; assay: […] antigen presentation on DCs; type: cell-based, C57BL/6 mouse; settings: CpG adjuvant, treatment 12-24 h, flow cytometry
[2] = target: CRBN protein (Homo sapiens, UniProt Q96SW2); assay: Nano ITC measurement of PROTAV-CRBN binding; settings: data did not fit the binding model
Chain of CRBN protein (Q96SW2 whole entry, species assumed): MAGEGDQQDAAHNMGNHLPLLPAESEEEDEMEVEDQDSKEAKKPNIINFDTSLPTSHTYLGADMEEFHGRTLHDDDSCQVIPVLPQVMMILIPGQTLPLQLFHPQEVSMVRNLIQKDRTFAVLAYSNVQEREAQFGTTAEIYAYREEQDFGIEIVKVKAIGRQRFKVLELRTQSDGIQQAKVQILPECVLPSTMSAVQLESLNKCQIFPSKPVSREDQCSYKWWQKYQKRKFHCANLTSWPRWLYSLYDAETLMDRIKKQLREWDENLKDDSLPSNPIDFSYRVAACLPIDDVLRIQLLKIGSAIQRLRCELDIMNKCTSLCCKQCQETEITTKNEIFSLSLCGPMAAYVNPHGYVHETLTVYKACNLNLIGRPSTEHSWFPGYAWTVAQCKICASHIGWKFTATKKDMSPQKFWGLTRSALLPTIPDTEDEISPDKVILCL

Binding to CRBN (in words) [2]	Molecule	H-2Kb/SIINFEKL presentation on DCs (in words) [1]
	CC(C)C[C@@H](C=O)NC(=O)[C@H](CC(C)C)NC(=O)[C@H](CC(C)C)NC(=O)OCc1ccccc1 [MG132] (Cbz-Leu-Leu-Leu-aldehyde)	reduced the level of SIINFEKL presentation on DCs
negligible binding	chicken ovalbumin (protein) MGSIGAASMEFCFDVFKELKVHHANENIFYCPIAIMSALAMVYLGAKDSTRTQINKVVRFDKLPGFGDSIEAQCGTSVNVHSSLRDILNQITKPNDVYSFSLASRLYAEERYPILPEYLQCVKELYRGGLEPINFQTAADQARELINSWVESQTNGIIRNVLQPSSVDSQTAMVLVNAIVFKGLWEKAFKDEDTQAMPFRVTEQESKPVQMMYQIGLFRVASMASEKMKILELPFASGTMSMLVLLPDEVSGLEQLESIINFEKLTEWTSSNVMEERKIKVYLPRMKMEEKYNLTSVLMAMGITDVFSSSANLSGISSAESLKISQAVHAAHAEINEAGREVVGSAEAGVDAASVSEEFRADHPFLFCIKHIATNAVLFFGRCVSP	
